The test has as its system PMS1. Nature of the test: Mini-Gene Reporter Assay—PMS1 (firefly luciferase mini-gene reporter transiently transfected into HEK293 cells). Type of test: cell-based. Particulars: Homo sapiens, mini-gene firefly luciferase reporter in HEK293 cells; for activation at 5 µM: read-out: PMS1 % Effect at 5 uM. The text has this:
Example 76. Mini-Gene Reporter Assay—PMS1
Mini-gene reporter constructs for each target site can be constructed by first PCR amplifying the region-of-interest including the sequence of the alternatively skipped, sequences of the immediate upstream and downstream introns, and sequences of the immediate upstream and downstream exons. Then the 3′ end of the amplified sequence can be ligated to a firefly luciferase reporter gene and cloned into the pcDNA3.1 vector backbone. The final reporter construct can be transiently transfected into HEK293 cells using Lipofectamine 3000 transfection reagents. Compounds that can induce the inclusion of the skipped exon in the reporter construct would increase the reporter firefly luciferase activity.
Test compounds may be diluted in duplicates and dispensed into an assay plate. Transient mini-gene reporter cell line stock is resuspended and dispensed into the assay plate. Assay plates are then centrifuged and incubated. A luciferase reagent (e.g. ONE-Glo firefly luciferase reagent from Promega®) may be added to the assay plate and the luminescence (RLU) signals recorded. EC50 values may be determined by curve fitting in Levenberg-Marquardt algorithm.
In Table D below, A indicates a IC50 (μM)<1 μM, B indicates a IC50 (μM) 1 μM to <10 μM, and C indicates a IC50 (μM) 10 μM to <50 μM. In Table D below, A indicates a >75% Effect at 5 μM μM. B indicates a 50 to <75% Effect at 5 μM μM, and C indicates a <50% Effect at 5 μM.

Structures can show the parent of a compound that is named as a salt.

This is an account of results in patent US20250066389A1, “HETEROCYCLIC AMIDES AND METHODS OF USING THE SAME” (Rgenta Therapeutics, Inc., priority 2021, published 2025).

`COc1cc2nc(C)cn2cc1C(=O)Nc1ccc(N2CCN[C@@H]3CC[C@@H]32)cc1F` (racemic) [Compound 174, rac-N-(4-((1R,6S)-2,5-diazabicyclo[4.2.0]octan-2-yl)-2-fluorophenyl)-7-methoxy-2-methylimidazo[1,2-a]pyridine-6-carboxamide]: the IC50 is < 1 µM.
`CCOc1cc2nc(C)cn2cc1C(=O)Nc1ccc(N2C[C@H]3CNCC[C@H]32)nn1` (racemic) [Compound 239] displayed an IC50 of 1 to 10 µM.
Take `CCOc1cc2nc(C)cn2cc1C(=O)Nc1ccc(N2CC[C@@H]3NCCC[C@@H]3C2)nn1` (racemic) [Compound 241]: the IC50 was in the range of 1 to 10 µM.
Take `CCOc1cc2nc(C)cn2cc1C(=O)Nc1ccc(N2CC[C@@H]3CNC[C@@H]3C2)nn1` (racemic) [Compound 246]: the IC50 lay in the range of 1 to 10 µM.
As for `CCOc1cc2nc(C)cn2cc1C(=O)Nc1ccc(N2CCC[C@H]3NCC[C@H]32)nn1` (racemic) [Compound 252], the IC50 fell in the range of 1 to 10 µM.
`CCOc1cc2nc(C)cn2cc1C(=O)Nc1ccc(N2C[C@@H]3CNC[C@]3(C)C2)nn1` (racemic) [Compound 253] returned an IC50 of 1 to 10 µM.
In the case of `CCOc1cc2nc(C)cn2cc1C(=O)Nc1ccc(N2CC[C@@H]3NCC[C@@H]3C2)nn1` (racemic) [Compound 261], the IC50 fell in the range of 1 to 10 µM.
Turning to `CCOc1cc2nc(C)cn2cc1C(=O)Nc1ccc(N2CC[C@H](NC)C2)nn1` (single isomer, unassigned) [Compound 706], the activation at 5 µM was > 75%.
Regarding `CCOc1cc2nc(C)cn2cc1C(=O)Nc1ccc(N2CC[C@@H](NC)C2)nn1` (single isomer, unassigned) [Compound 707], the activation at 5 µM is > 75%.
Consider `Cc1cn2cc(C(=O)Nc3ccc(N4CCNCC4)cc3F)ncc2n1` [Compound 101, N-(2-fluoro-4-(piperazin-1-yl)phenyl)-2-methylimidazo[1,2-a]pyrazine-6-carboxamide HCl Salt], for which the activation at 5 µM is < 50%.
Consider `Cc1cn2cc(C(=O)Nc3ccc(N4CCNCC4)cc3)ncc2n1` [Compound 102, 2-methyl-N-(4-(piperazin-1-yl)phenyl)imidazo[1,2-a]pyrazine-6-carboxamide], for which the activation at 5 µM is < 50%.
With `Cc1cn2cc(C(=O)Nc3ccc(N4CCNCC4)nc3)ncc2n1` [Compound 103, 2-methyl-N-(6-(piperazin-1-yl)pyridin-3-yl)imidazo[1,2-a]pyrazine-6-carboxamide], the activation at 5 µM was < 50%.
Still for that read-out and setting: next, `Cc1cn2cc(C(=O)Nc3ccc(N4CCN[C@H](C)C4)nc3)ncc2n1` [Compound 104, hydrochloride]: < 50%.
`Cc1cn2cc(C(=O)Nc3ccc(N4CCN[C@H](C)C4)cc3F)ncc2n1` [Compound 105, (R)—N-(2-fluoro-4-(3-methylpiperazin-1-yl)phenyl)-2-methylimidazo[1,2-a]pyrazine-6-carboxamide hydrochloride]: the activation at 5 µM was < 50%.
On the same count and under the same terms, under `Cc1cn2cc(C(=O)Nc3ccc(N4C[C@H]5CC[C@@H](C4)N5)cc3F)ncc2n1` [Compound 106, N-(4-((1R,5S)-3,8-diazabicyclo[3.2.1]octan-3-yl)-2-fluorophenyl)-2-methylimidazo[1,2-a]pyrazine-6-carboxamide] stands < 50%; under `Cc1cn2cc(C(=O)Nc3ccc(N4CCN[C@@H](C)C4)cn3)cc(F)c2n1` [Compound 107, (S)-8-fluoro-2-methyl-N-(5-(3-methylpiperazin-1-yl)pyridin-2-yl)imidazo[1,2-a]pyridine-6-carboxamide TFA Salt], 50 to 75%.
`Cc1cn2cc(C(=O)Nc3ccc(N4CCNCC4)cc3F)cc(F)c2n1` [Compound 108, 8-fluoro-N-(2-fluoro-4-(piperazin-1-yl)phenyl)-2-methylimidazo[1,2-a]pyridine-6-carboxamide hydrochloride] registered an IC50 of 1 to 10 µM.
For `Cc1cn2cc(C(=O)Nc3ccc(N4CCNCC4)cc3F)nc(C)c2n1` [Compound 109, N-(2-fluoro-4-(piperazin-1-yl)phenyl)-2,8-dimethylimidazo[1,2-a] pyrazine-6-carboxamide hydrochloride], the activation at 5 µM is > 75%.
Regarding `COc1cc2nc(C)cn2cc1C(=O)Nc1ccc(N2CCNCC2)cn1` [Compound 110, 7-methoxy-2-methyl-N-(5-(piperazin-1-yl)pyridin-2-yl)imidazo[1,2-a]pyridine-6-carboxamide HCl Salt], the IC50 was < 1 µM.
As to `COc1cc2nc(C)cn2cc1C(=O)Nc1ccc(N2CCNCC2)cc1F` [Compound 111, N-(2-fluoro-4-(piperazin-1-yl)phenyl)-7-methoxy-2-methylimidazo [1,2-a]pyridine-6-carboxamide hydrogen chloride], the IC50 is < 1 µM.
For `COc1c(C(=O)Nc2ccc(N3CCNCC3)cn2)cn2cc(C)nc2c1C` [Compound 112, 7-methoxy-2,8-dimethyl-N-(5-(piperazin-1-yl)pyridin-2-yl)imidazo[1,2-a]pyridine-6-carboxamide], the activation at 5 µM was < 50%.
`COc1cc2nn(C)cc2cc1C(=O)Nc1ccc(N2CCNCC2)cn1` [Compound 113, 6-methoxy-2-methyl-N-(5-(piperazin-1-yl)pyridin-2-yl)-2H-indazole-5-carboxamide HCl Salt] registered an IC50 of 1 to 10 µM.
Regarding `COc1cc2nn(C)cc2cc1C(=O)Nc1ccc(N2CCN[C@@H](C)C2)cc1F` [Compound 114, (S)—N-(2-fluoro-4-(3-methylpiperazin-1-yl)phenyl)-6-methoxy-2-methyl-2H-indazole-5-carboxamide HCl Salt], the concentration for half-maximal inhibition (IC50) is < 1 µM.
Consider `COc1cc2nn(C)cc2cc1C(=O)Nc1ccc(N2CCNCC2)cc1F` [Compound 115, N-(2-fluoro-4-(piperazin-1-yl)phenyl)-6-methoxy-2-methyl-2H-indazole-5-carboxamide HCl Salt], for which the IC50 was < 1 µM.
Take `COc1cc2nn(C)cc2cc1C(=O)Nc1ccc(N2CC3(CNC3)C2)cc1F` [Compound 116, N-(2-fluoro-4-(2,6-diazaspiro[3.3]heptan-2-yl)phenyl)-6-methoxy-2-methyl-2H-indazole-5-carboxamide TFA Salt]: the activation at 5 µM was < 50%.
For the molecule `COc1cc2nn(C)cc2cc1C(=O)Nc1ccc(N2CC3CNCC3C2)cc1F` (stereo not drawn) [Compound 117, N-(2-fluoro-4-(hexahydropyrrolo[3,4-c]pyrrol-2(1H)-yl)phenyl)-6-methoxy-2-methyl-2H-indazole-5-carboxamide], the activation at 5 µM is < 50%.
`COc1cc2nc(C)cn2cc1C(=O)Nc1ccc(N2CCNCC2)nn1` [Compound 118, 7-methoxy-2-methyl-N-[6-(piperazin-1-yl)pyridazin-3-yl]imidazo[1,2-a]pyridine-6-carboxamide]: the IC50 is < 1 µM.
`COc1cc2nc(C)cn2cc1C(=O)Nc1ccc(N2CCNCC2)nc1` [Compound 119, 7-methoxy-2-methyl-N-[6-(piperazin-1-yl)pyridin-3-yl]imidazo[1,2-a]pyridine-6-carboxamide] had an IC50 of 1 to 10 µM.
For `COc1cc2nc(C)cn2cc1C(=O)Nc1cnc(N2CCNCC2)nc1` [Compound 120, 7-methoxy-2-methyl-N-(2-(piperazin-1-yl)pyrimidin-5-yl)imidazo[1,2-a]pyridine-6-carboxamide], the IC50 was in the range of 1 to 10 µM.
`Cc1cn2cc(C(=O)Nc3ccc(N4CCNCC4)nc3)cc(F)c2n1` [Compound 121, 8-fluoro-2-methyl-N-(6-(piperazin-1-yl)pyridin-3-yl)imidazo[1,2-a]pyridine-6-carboxamide]: the activation at 5 µM was < 50%.
As for `Cc1cn2cc(C(=O)Nc3ccc(N4CCN[C@@H](C)C4)nn3)c(OC3CCC3)cc2n1` [Compound 122, (S)-7-cyclobutoxy-2-methyl-N-(6-(3-methylpiperazin-1-yl)pyridazin-3-yl)imidazo[1,2-a]pyridine-6-carboxamide hydrochloride], the half-inhibitory concentration (IC50) is < 1 µM.
As for `COc1cc2nn(C)cc2cc1C(=O)Nc1ccc(N2CCNCC2)nn1` [Compound 123, 6-methoxy-2-methyl-N-(6-(piperazin-1-yl)pyridazin-3-yl)-2H-indazole-5-carboxamide hydrochloride], the IC50 lay in the range of 1 to 10 µM.
`Cc1cn2cc(C(=O)Nc3ccc(N4CCN[C@@H](C)C4)nn3)nc(C)c2n1` [Compound 124, (S)-2,8-dimethyl-N-(6-(3-methylpiperazin-1-yl)pyridazin-3-yl)imidazo[1,2-a]pyrazine-6-carboxamide hydrochloride]: the IC50 is 1 to 10 µM.
As to `COc1cc2nn(C)cc2cc1C(=O)Nc1ccc(N2CCN[C@@H](C)C2)nn1` [Compound 125, (S)-6-methoxy-2-methyl-N-(6-(3-methylpiperazin-1-yl)pyridazin-3-yl)-2H-indazole-5-carboxamide hydrochloride], the IC50 is < 1 µM.
Regarding `CCOc1cc2nc(C)cn2cc1C(=O)Nc1ccc(N2CCNCC2)cc1F` [Compound 126, 7-ethoxy-N-(2-fluoro-4-(piperazin-1-yl)phenyl)-2-methylimidazo[1,2-a]pyridine-6-carboxamide], the IC50 is < 1 µM.
With `COc1c(C(=O)Nc2ccc(N3CCNCC3)cc2F)cn2cc(C)nc2c1C` [Compound 127, N-(2-fluoro-4-(piperazin-1-yl)phenyl)-7-methoxy-2,8-dimethylimidazo[1,2-a]pyridine-6-carboxamide], the IC50 was 1 to 10 µM.

Broadly, the IC50 is the concentration at which inhibition is half-maximal. High values mean a need for much substance, low ones inhibition by little substance.
